The source of these data is patent publication US12258561B2, “Compositions and methods to promote bone formation and their uses including for the treatment of cancer” (THE RESEARCH FOUNDATION FOR THE STATE UNIVERSITY OF NEW YORK, priority 2014, dated 2025).

Entries after “also recorded” stand apart in the source; their conditions may differ.

Test [1] deals with RDES Ewing's sarcoma of bone tumor cells. In words: Assay of cell number (MTT), RDES cells. The test is classed as cell-based. From the text:
(§1) Methods: Human bone marrow was collected from consenting adult patients undergoing either an elective primary proximal femoral total hip arthroplasty or elective primary distal femoral total knee arthroplasty (n=6, mean age 65) as a part of an IRB approved study. Human MSC were derived from the adherent fraction of whole bone marrow aspirates. Ewing's sarcoma tumor cells (RDES, Hs822 and Hs863) and SaOS2 osteosarcoma tumor cells were obtained from ATCC. Cells were maintained in Dulbecco's Modification of Eagle's Media (DMEM) containing 10% fetal calf serum (v/v) and 1% penicillin-streptomycin-glutamine (PSG; Cellgro, Mediatech).
(§2) Assay of Cell Number: Following the addition of 1-mM naloxone or 1-mM naltrexone, viable cell number was determined with the MTT assay. After 72-hours and 120-hours, MTT (5 mg/ml (w/v), Sigma) was added to each well, incubated for 2-hours, after which the cells lysed with 500-μl of DMSO (Sigma). MTT was measured at 570-nm and the effects of therapy on cell proliferation were determined by normalizing treated wells relative to mean values from non-treated wells: Fold change in cell number=100*[treated cells optical density/mean control optical density].

Test [2] deals with SaO52 osteosarcoma tumor cells. As to the kind of experiment: Assay of cell number (MTT), osteosarcoma cells. The test is classed as cell-based.
Text: as §1, §2

The subject of test [3] is Hs822t Ewing's sarcoma of bone tumor cells. In words: Assay of cell number (MTT), Hs822t cells. The test is classed as cell-based.
Text: as §1, §2

The subject of test [4] is unicortical defect in mouse tibia. As to the kind of experiment: Unicortical defect model, direct injection, microCT. In kind it is in vivo, C57BL/6 mice. As to conditions: naloxone 1-mM or met5 50-μM. How it is done: Unicortical Defect Model: Male 3-week old C57BL/6 mice (n=5 per treatment group) were injected with met5, naloxone or naltrexone following the creation of a unicortical defect. Briefly, a small incision (approximately 3-mm) was made just below the knee joint, located on the medial side of the tibia just below the tibial tuberosity on the tibial crest. In young animals the physeal plate is clearly visible and the drill bit was placed approximately 1-mm below this point. The drill-bit produces a unicortical defect with dimensions 300-μm diameter×1-mm depth. A Hamilton Neuros RN 10-μL syringe with a 33-gauge blunt tip needle was used to inject 2-μL of met5 (28.7-μg), naloxone (400-μg) or naltrexone (378-μg) resuspended in saline directly into the unicortical defect at a rate no faster than approximately 0.1-μL per second. The left-limb tibias served as contra-lateral surgical controls, in which animals received a unicortical defect and 2-μL of saline was injected. Mice were euthanized 5-days after surgery, hind limbs were collected and tibias were fixed for immunofluorescence, TRAP staining and OTC associated bone growth.
(§3) MicroCT Analysis of Unicortical Defects: High-resolution images of the tibia were acquired with μCT imaging system (μT40; Scanco Medical). Tibias were scanned at 45-keV with an isotropic voxel size of 12-μm. An analysis region was selected from axial sections to include the entire unicortical defect bounded by the endosteal cortical wall. The volume corrected bone volume (bone volume/total volume; By/Tv), trabecular number (TbN) and trabecular thickness (TbTh) were calculated using the Scanco software.

Test [5] has the same test system. As to the kind of experiment: Opioid antagonist containing collagen implant in unicortical defect model, microCT. In kind it is in vivo, C57BL/6 mice. As to conditions: 7 days after surgery.
Text: Implantation of Opioid Antagonist Containing Collagen Implant into a Unicortical Defect Model: Male 5-week old C57BL/6 mice (n=5 per treatment group for a total of 25 total animals) were used in this study. […] Unicortical defects were surgically administered through a small incision (approximately 3-mm) made just below the knee joint, located on the medial side of the tibia just below the tibial tuberosity on the tibial crest. In 5-weeks old male mice, the physeal plate is clearly visible and the drill bit was placed approximately 1-mm below this point. The drill-bit produces a unicortical defect with dimensions 300-μm diameter×1-mm depth. […] In parallel, a separate group of animals served as non-surgical controls. Mice were euthanized 7-days after surgery, hind limbs were collected and tibias were prepared for micro-CT (μCT) analysis.
as §3

Test [6] concerns MSC cultures induced to become osteoblasts. In words: Osteogenesis: mineral formation in MSC with osteoinduction media (alizarin red-S staining). In kind it is cell-based, human. The source says: Methods: Human Bone Marrow was Collected from Consenting Adult Patients undergoing either an elective primary proximal femoral total hip arthroplasty or elective primary distal femoral total knee arthroplasty (n=6, mean age 65) as a part of an IRB approved study. Human MSC were derived from the adherent fraction of cells derived from each whole bone marrow aspirate collected, while the monocyte population was collected from the non-adherent fraction of the bone marrow. The monocyte fraction was enriched through sub-culture with 100-ng/mL recombinant human macrophage colony-stimulating factor (MCSF; Wyeth). In parallel experiments described below, the femurs from 3-week (n=10) and 16-week (n=20) old male mice were collected and then the bone marrow was flushed from the femur according to the following: A 21-gauge needle was inserted into the femoral intramedular canal after the removal of the proximal and distal ends of the femur. Media was then carefully passed through the proximal end of the femur, which forced the bone marrow to pass out of the bone. Finally, the bone marrow pellet was mechanically disassociated using an 18-gauge needle and then passed through a 70-μm mesh filter. These whole bone marrow aspirates were used to generate osteoclasts. Cells were maintained in Dulbecco's Modification of Eagle's Media (DMEM) containing 10% fetal calf serum (v/v) and 1% penicillin-streptomycin-glutamine (PSG; Cellgro, Mediatech). […] The responsible IACUC committee approved all of the animal studies described in this work.
Osteogenesis: Osteogenic potential in MSC was assayed by chemically inducing mineral formation. MSC from at least three human patients were seeded at 5×10^3 cells per well and allowed to become confluent and woven prior to the addition of osteo-induction media. Induction media consisted of DMEM containing 20% FCS (v/v) and 1% PSG supplemented with 25-μg/mL of acscorbic-2-phosphate (Sigma), 100-nM dexamethasone (Sigma) and the following dosing regimen of β-glycerophosphate (BGP; Sigma): 1× media change with 5-mM BGP, 1× media change with 10-mM BGP and 1× media change with 20-mM of BGP. Met5-ligand (0-, [5-μM] 2.87-, or [50-μM] 28.7-μg; Sigma), naloxone (0-, 400-fg, 400-pg, 400-ng, 400-μg; Sigma) or naltrexone (0-, 378-fg, 378-pg, 378-ng, 378-μg; Sigma) was added as follows: 1) 1×, with the first addition of osteo-induction media, 2) 2×, with the first and second addition of osteo-induction media and 3) with each post-induction media change. […] After the appearance of mineral nodules, cells were fixed with 70% ice-cold EtOH (Sigma) and then stained using 40-mM alizarin red-S (pH 4.2, Sigma). Osteogenesis experiments were repeated at least twice for each patient.

Test [7] relates to monocytes cultured to become osteoclasts. In words: TRAP staining and assay of osteoclast number. In kind it is cell-based, human, mouse. How it is done: TRAP Staining and the Assay of Osteoclast Number: Osteoclasts were derived from either an enriched population of human monocytes or from mouse non-enriched whole bone marrow aspirates. Three human patient bone marrow samples were assayed in parallel with samples collected from 3-week (n=10) mouse bone marrow. The monocyte fraction was stimulated to become osteoclasts by culturing 1×10^6 cells with 25-ng/mL of MCSF and 25-ng/mL of recombinant human or mouse RANK-ligand (R&D Systems) in the presence of the met5-ligand ([5-μM] 2.87-, or [50-μM] 28.7-μg; Sigma), naloxone (400-ng or 400-μg; Sigma) or naltrexone (378-ng or 378-μg; Sigma). Osteoclasts were stained with tartrate resistant acid phosphatase (TRAP; Sigma Leukocyte Acid Phosphatase Kit 387-A) and counted when cells stained TRAP-positive and had at least three nuclei. Estimates of osteoclast number were obtained by Cavalieri sampling and a modification of the fractionator technique.

Setting [8] is: 50-μM met5 with collagen implant.
Where [9] appears, read: collagen implant, 25-ng BMP2, 1-mM naltrexone or 1-mM naloxone.

Take “Tyr-Gly-Gly-Phe-Met (YGGFM; printed: Tyr-Gly-Gly-Phe-Met) [met5, opioid growth factor (OGF or met-5 enkephalin), the native ligand for the OGFR]”: in test [1] (met5), the “RDES tumor cell number” value was “no effect”. In addition, the “SaO52 osteosarcoma cell number” value in test [2] (met5) is listed as “had not effect on cell number”. Besides, the “Hs822t tumor cell number” value in test [3] (50-μM of met5) is “significant increase”. In addition, the bone healing entry in test [4] was “no effect”. Further, in test [5] (setting [8]), the “Bv/Tv greater than the non-surgical control group” value is on record as “approximately 37%” and the “fracture healing (Bv/Tv) compared with the surgical control group” value is “not significantly different”. Also, the “trabecular thickness (TbTh) relative to the control non-surgical group” value in test [5] (collagen implant) was “increased within the defect significantly”. Besides, the mineral accumulation result in test [6] (5-μM met5 added to osteoinduction media) is recorded as “no effect on mineral formation in culture; also recorded: no effect on mineral accumulation”. Further, the mineral accumulation result in test [6] (50-μM met5 added to osteoinduction media) was “no effect on mineral formation in culture; also recorded: decreased mineral accumulation slightly”. In addition, the “osteoclast number (TRAP staining)” value in test [7] (met5, relative to control osteoclast cultures) is listed as “unaffected”.

As for `O=C1CC[C@@]2(O)[C@H]3Cc4ccc(O)c5c4[C@@]2(CCN3CC2CC2)[C@H]1O5` [naltrexone], in test [1] (1-mM, seventy-two hours), the “RDES tumor cell number relative to control cultures” value is “decreased significantly”. Further, in test [2] (1-mM, seventy-two hours), the “SaO52 osteosarcoma cell number relative to control cultures” value was “decreased significantly”. For the same molecule, the “Hs822t tumor cell number relative to control cultures” value in test [3] (1-mM, seventy-two hours) is given as “decreased relative to the control cultures”. Further, in test [5] (collagen implant), the “Bv/Tv relative to non-surgical controls” value is on record as “increased relative to non-surgical controls” and the “trabecular thickness (TbTh) relative to the control non-surgical group” value is recorded as “increased within the defect significantly”. For the same molecule, in test [5] (collagen implant, 1-mM), the “Bv/Tv compared with the BMP2 treated group” value is listed as “no significant difference”. Moreover, in test [5] (setting [9]), the “increase in Bv/Tv relative to the PBS treated group” value is given as 39.2% and the “increase in Bv/Tv relative to the surgical control group” value turned out to be 63.5%. Besides, the “mineral accumulation (red staining)” value in test [6] (between 1-μM and 1-mM with osteoinduction media) is reported as “increased mineral, but to a lesser extent than naloxone”. Also, the “osteoclast number (TRAP staining)” value in test [7] (1-mM) is recorded as “reduced osteoclast number substantially”. For the same molecule, in test [7] (1-μM), the “osteoclast number (TRAP staining)” value is on record as “did not significantly reduce osteoclast number”.
